Measurements as given in patent publication US20090029992A1, “SUBSTITUTED PYRAZOLE COMPOUNDS” (priority 2007, published 2009).

Experiments:
recombinant Aurora A = target: T1, recombinant Aurora A (Homo sapiens, UniProt O14965); experiment: Aurora A (Aurora 2) inhibition assay, Z'-Lyte kinase assay; format: biochemical; settings: ATP 10 μM, 1 h
T1 construct: purchased Upstate, Lake Placid, N.Y
T1 sequence (O14965 1-403): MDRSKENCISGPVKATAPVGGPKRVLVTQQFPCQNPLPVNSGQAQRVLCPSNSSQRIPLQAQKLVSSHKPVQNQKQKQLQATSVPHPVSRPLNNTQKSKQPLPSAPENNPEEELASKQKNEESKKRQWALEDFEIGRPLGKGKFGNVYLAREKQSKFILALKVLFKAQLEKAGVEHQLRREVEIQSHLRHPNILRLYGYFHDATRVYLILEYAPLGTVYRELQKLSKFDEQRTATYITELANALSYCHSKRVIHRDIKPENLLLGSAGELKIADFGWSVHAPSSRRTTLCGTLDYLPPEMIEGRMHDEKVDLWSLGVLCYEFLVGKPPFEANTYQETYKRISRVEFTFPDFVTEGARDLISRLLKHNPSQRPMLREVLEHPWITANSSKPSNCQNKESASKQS
Description: Compounds were tested for their potency against recombinant Aurora A (Upstate, Lake Placid, N.Y.) using the PanVera Z′-Lyte kinase assay kit—Ser/Thr 1 peptide (Invitrogen, Carlsbad, Calif.). Assays were carried out in kinase assay buffer (50 mM HEPES, pH 7.5, 10 mM MgCl2, 5 mM EGTA, 0.05% Brij-35, 2 mM DTT). Test compounds were initially dissolved in DMSO at 100× the highest tested concentration, then serially diluted to 4× test concentrations in kinase assay buffer. Next, Aurora A (final concentration 200-500 ng/mL), Z′-Lyte Ser/Thr 1 peptide (final concentration 2 μM) and ATP (final concentration 10 μM) were added according to the manufacturer's instructions. Assays were carried out in half-area 96-well white polystyrene assay plates (Corning, Corning, N.Y.) in a final volume of 20 μl. The reaction was allowed to proceed for 1 h at room temperature in the dark, at which point the development reagent and stop reagent were added according to the manufacturer's instructions. Coumarin (Ex. 400 nm, Em. 465 nm) and fluorescein (Ex. 400 nm, Em. 565 nm) fluorescence values were measured on a SpectraFluor Plus plate reader (Tecan, Durham, N.C.). The emission ratio (coumarin/fluorescein) was determined and used to calculate the percent phosphorylation for each well. Wells containing substrate but no kinase and wells containing a phosphopeptide control were used to set 0% and 100% phosphorylation values, respectively. Typically 20-40% of the substrate was phosphorylated in wells without inhibitor. Dose-response curves of relative Aurora A activity vs. inhibitor concentration were plotted with Grafit (Erithacus Software, Horley, Surrey, UK).

[1] = target: T2, N-terminal His-tagged human Src (Homo sapiens, UniProt P12931); experiment: Src kinase inhibition assay (33P-ATP filter assay); format: biochemical
T2 construct: His (N); purchased Upstate USA Inc, 706 Forest Street, Charlottesville, Va
Description: (§1) Compounds were assayed for Src kinase inhibitory activity using N-terminal His-tagged human Src (Upstate USA Inc, 706 Forest Street, Charlottesville, Va.). Serial dilutions of compound were assayed in a final reaction volume of 25 μL by incubating a solution of the above Src kinase (5-10 mU), 8 mM MOPS (3-(N-morpholino) propanesulfonic acid) pH 7.0, 0.2 mM EDTA (ethylenediamine tetracetic acid), 250 μM amino acid sequence KVEKIGEGTYGVVYK (Upstate USA Inc, 706 Forest Street, Charlottesville, Va.), and 10 mM magnesium acetate and [γ-^33P-ATP] (specific activity of about 500 cpm/μmol, concentration as required). The reaction was initiated by the addition of the magnesium acetate and [γ-^33P-ATP] mixture. After incubation for 40 minutes at room temperature, the reaction was stopped by the addition of 5 μL of a 3% phosphoric acid solution. A 10 μL aliquote of the reaction was then spotted onto a P30 filtermat (PerkinElmer, Wellesley, Mass.) and washed three times for five minutes in 75 mM phosphoric acid and once in methanol prior to drying and scintillation counting. Inhibition of Src activity was determined by comparison to assays that contained no inhibitor.

[2] = target: T3, N-terminal His6-tagged recombinant human KDR, residues 790-end (Homo sapiens, UniProt P35968); experiment: KDR kinase inhibition assay (33P-ATP filter assay); format: biochemical
T3 construct: recombinant human KDR, residues 790-end; His6 (N); purchased Upstate USA Inc, 706 Forest Street, Charlottesville, Va
Description: as §1, with “for KDR” for “for Src”, “N-terminal His6-tagged recombinant” for “N-terminal His-tagged”, “human KDR, residues 790-end” for “human Src”, “above KDR” for “above Src”, “acid), 0.33 mg/mL myelin basic protein” for “acid), 250 μM amino acid sequence KVEKIGEGTYGVVYK”, “of KDR” for “of Src”

HCT116 cells = experiment: Whole cell cytotoxicity assay, Sulforhodamine B; format: cell-based; settings: Homo sapiens, HCT-116; HCT116, 96 hours incubation, SRB; read-out: IC50 values in this assay (HCT116 cell growth)
Description: Human tumor-derived cell lines, HCT116 or MCF7 (ATCC) were plated in a 96 well plate in DMEM containing 10% fetal bovine serum and 2 mM L-glutamine at a density of 500 HCT116 cells or 1,000 MCF7 cells per well and incubated at 37° C., 5% CO2, for 24 hours prior to the addition of experimental compounds. Compounds were added using the dilution series indicated to duplicate plates and the cells were incubated in media plus compound for 96 hours. An additional plate was fixed in 10% TCA at the time of the addition of compound to provide a measurement of the cell population at time zero, the time of drug addition. Following the 96 hour incubation, cells were fixed in situ by gently aspirating off the culture media and then adding 50 ul of ice cold 10% TCA per well and incubation at 4° C. for 60 minutes. The plates were washed with tap water five times and allowed to air dry for 5 minute. 50 ul of a 0.4% (w/v) Sulforhodamine B solution in 1% (v/v) acetic acid was added per well and the cells were incubated for 30 minutes at room temperature. Following staining, plates were washed four times with 1% acetic acid to remove any unbound dye and then allowed to air dry for 5 minutes. The stain was solubilized with 100 ul of 10 mM Tris pH 10.5 per well and placed on an orbital rotator for 5 minutes. The absorbance was read at 570 nm. Percentage growth was calculated using the absorbance readings from the time zero plate (Tz) and the dilution series plate […] which included a column of cells grown in media without compound as a control (C) using the formulas:
[(Ti−Tz)/(C−Tz)]×100 for concentrations for which Ti>/=Tz
[(Ti−Tz)/Tz]×100 for concentrations for which Ti<Tz.
Three dose response parameters were calculated for each experimental agent. Growth inhibition of 50% (GI50) was calculated from [(Ti−Tz)/(C−Tz)]×100=50, which was the drug concentration resulting in a 50% reduction in the net protein increase (as measured by SRB staining) in control cells during the drug incubation. The drug concentration resulting in total growth inhibition (TGI) was calculated from Ti=Tz. The LC50 (concentration of drug resulting in a 50% reduction in the measured protein at the end of the drug treatment as compared to that at the beginning) indicating a net loss of cells following treatment ws calculated from [(Ti−Tz)/Tz]×100=−50. Values are calculated for each of these three parameters if the level of activity was reached; however, if the effect was not reached or was exceeded, the value for that parameter is expressed as greater or less than the maximum or minimum concentration tested.

[3] = target: T4, N-terminal GST-tagged recombinant human Flt3, residues 564-end (Homo sapiens, UniProt P36888); experiment: Flt3 kinase inhibition assay (33P-ATP filter assay); format: biochemical; settings: 40 minutes at room temperature
T4 construct: recombinant human Flt3, residues 564-end; GST (N); purchased Upstate USA Inc, 706 Forest Street, Charlottesville, Va
T4 sequence (P36888 564-993 limits assumed): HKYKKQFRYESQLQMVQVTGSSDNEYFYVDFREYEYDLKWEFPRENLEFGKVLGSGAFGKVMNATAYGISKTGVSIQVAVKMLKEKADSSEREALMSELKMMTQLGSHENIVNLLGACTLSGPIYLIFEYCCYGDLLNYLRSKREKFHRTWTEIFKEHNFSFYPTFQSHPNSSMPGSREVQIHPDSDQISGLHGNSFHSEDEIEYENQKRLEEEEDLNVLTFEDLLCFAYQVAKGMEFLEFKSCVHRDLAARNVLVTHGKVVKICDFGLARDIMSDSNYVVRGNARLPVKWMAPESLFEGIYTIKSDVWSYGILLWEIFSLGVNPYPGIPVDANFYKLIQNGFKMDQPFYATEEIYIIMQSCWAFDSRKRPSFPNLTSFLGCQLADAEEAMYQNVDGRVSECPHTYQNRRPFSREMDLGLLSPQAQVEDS
Description: Compounds were assayed for Flt3 kinase inhibitory activity using N-terminal GST-tagged recombinant human Flt3, residues 564-end (Upstate USA Inc, 706 Forest Street, Charlottesville, Va.). Serial dilutions of compound were assayed in a final reaction volume of 25 μL by incubating a solution of the above Flt3 kinase (5-10 mU), 8 mM MOPS (3-(N-morpholino) propanesulfonic acid) pH 7.0, 0.2 mM EDTA (ethylenediamine tetracetic acid), 50 μM amino acid sequence EAIYAAPFAKKK (Upstate USA Inc, 706 Forest Street, Charlottesville, Va.), and 10 mM magnesium acetate and [γ-^33P-ATP] (specific activity of about 500 cpm/μmol, concentration as required). The reaction was initiated by the addition of the magnesium acetate and [γ-^33P-ATP] mixture. After incubation for 40 minutes at room temperature, the reaction was stopped by the addition of 5 μL of a 3% phosphoric acid solution. A 10 μL aliquote of the reaction was then spotted onto a P30 filtermat (PerkinElmer, Wellesley, Mass.) and washed three times for five minutes in 75 mM phosphoric acid and once in methanol prior to drying and scintillation counting. Inhibition of Flt3 activity was determined by comparison to assays that contained no inhibitor.

[4] = group with IC50 greater than 100 nM

T2 sequence (P12931 whole entry): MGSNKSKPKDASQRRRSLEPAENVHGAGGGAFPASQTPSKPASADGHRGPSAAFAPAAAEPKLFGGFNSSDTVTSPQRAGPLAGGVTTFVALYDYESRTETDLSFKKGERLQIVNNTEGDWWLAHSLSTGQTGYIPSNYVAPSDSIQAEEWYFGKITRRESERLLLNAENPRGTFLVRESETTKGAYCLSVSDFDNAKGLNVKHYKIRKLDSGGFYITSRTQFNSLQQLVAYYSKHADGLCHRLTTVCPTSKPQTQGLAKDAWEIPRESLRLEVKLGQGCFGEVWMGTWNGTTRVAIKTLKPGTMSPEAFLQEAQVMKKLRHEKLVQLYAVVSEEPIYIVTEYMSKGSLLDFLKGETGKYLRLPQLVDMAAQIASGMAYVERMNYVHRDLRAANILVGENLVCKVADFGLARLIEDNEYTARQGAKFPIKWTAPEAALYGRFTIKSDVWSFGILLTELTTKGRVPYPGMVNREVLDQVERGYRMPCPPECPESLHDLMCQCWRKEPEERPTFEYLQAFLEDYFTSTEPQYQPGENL
T3 sequence (P35968 790-1356 limits assumed): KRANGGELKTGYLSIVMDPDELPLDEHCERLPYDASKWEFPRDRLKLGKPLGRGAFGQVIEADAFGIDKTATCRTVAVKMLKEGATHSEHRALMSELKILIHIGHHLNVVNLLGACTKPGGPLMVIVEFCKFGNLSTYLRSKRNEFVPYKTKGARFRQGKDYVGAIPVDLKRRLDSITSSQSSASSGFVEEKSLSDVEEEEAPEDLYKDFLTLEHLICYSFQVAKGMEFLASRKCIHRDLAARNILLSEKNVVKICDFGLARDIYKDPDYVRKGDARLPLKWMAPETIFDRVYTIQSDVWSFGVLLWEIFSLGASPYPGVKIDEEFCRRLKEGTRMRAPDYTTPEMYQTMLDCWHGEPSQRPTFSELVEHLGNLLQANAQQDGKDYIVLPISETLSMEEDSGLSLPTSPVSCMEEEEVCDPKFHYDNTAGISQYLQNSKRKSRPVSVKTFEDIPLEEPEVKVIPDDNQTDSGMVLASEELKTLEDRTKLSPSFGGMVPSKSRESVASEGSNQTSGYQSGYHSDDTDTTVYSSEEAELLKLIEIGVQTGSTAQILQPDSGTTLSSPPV

IC50 (recombinant Aurora A) [nM] | IC50 [1, 4] [nM] | IC50 [2, 4] [nM] | IC50 ([1]; 40 minutes at room temperature) [nM] | IC50 ([2]; 40 minutes at room temperature) [nM] | IC50 [3] [nM] | IC50 (recombinant Aurora A; [4]) [nM] | Structure (SMILES) | IC50 (HCT116 cells) [nM]
≤ 100 | ≤ 1000 | ≤ 1000 | – | – | – | – | Cc1cc(Nc2cc(NC3CCOCC3)nc(-c3cccc(Cl)c3)n2)n[nH]1 [Compound 23, 2-(3-chlorophenyl)-N^4-(5-methyl-1H-pyrazol-3-yl)-N^6-(tetrahydro-2H-pyran-4-yl)pyrimidine-4,6-diamine] | 1000 to 10000
≤ 100 | – | – | ≤ 100 | ≤ 100 | – | – | Cc1cc(Nc2cc(N3CCN(C)CC3)nc(-c3ccccc3F)n2)n[nH]1 [Compound 34, 2-(2-fluorophenyl)-N-(5-methyl-1H-pyrazol-3-yl)-6-(4-methylpiperazin-1-yl)pyrimidin-4-amine] | 1000 to 10000
≤ 100 | – | – | ≤ 100 | ≤ 100 | ≤ 100 | – | Cc1cc(Nc2cc(N3CCN(C)CC3)nc(-c3cccc(O)c3)n2)n[nH]1 [Example 161, 3-(4-(5-methyl-1H-pyrazol-3-ylamino)-6-(4-methylpiperazin-1-yl)pyrimidin-2-yl)phenol] | –
– | ≤ 1000 | ≤ 1000 | – | – | ≤ 100 | ≤ 1000 | COCCN(C)c1cc(Nc2cc(C)[nH]n2)nc(-c2cccc(C)c2C)n1 [Example 181, 2-(2,3-dimethylphenyl)-N^4-(2-methoxyethyl)-N^4-methyl-N^6-(5-methyl-1H-pyrazol-3-yl)pyrimidine-4,6-diamine] | –
– | ≤ 1000 | ≤ 1000 | – | – | ≤ 100 | ≤ 1000 | Cc1cc(Nc2cc(NC3CCOCC3)nc(-c3cccc4c3OCCO4)n2)n[nH]1 [Compound 129] | –
– | ≤ 1000 | ≤ 1000 | – | – | ≤ 100 | ≤ 1000 | Cc1ccc(C)c(-c2nc(Nc3cc(C)[nH]n3)cc(NC3CCOCC3)n2)c1 [Example 206, 2-(2,5-dimethylphenyl)-N^4-(5-methyl-1H-pyrazol-3-yl)-N^6-(tetrahydro-2H-pyran-4-yl)pyrimidine-4,6-diamine] | –
≤ 100 | – | – | ≤ 100 | ≤ 100 | ≤ 100 | – | CC(=O)Nc1cccc(-c2nc(Nc3cc(C)[nH]n3)cc(N3CCN(C)CC3)n2)c1 [Example 167, N-(3-(4-(5-methyl-1H-pyrazol-3-ylamino)-6-(4-methylpiperazin-1-yl)pyrimidin-2-yl)phenyl)acetamide] | –
– | ≤ 1000 | ≤ 1000 | – | – | – | ≤ 1000 | Cc1cc(Nc2cc(NC3CCOCC3)nc(-c3ccccc3Cl)n2)n[nH]1 [Compound 24, 2-(2-chlorophenyl)-N^4-(5-methyl-1H-pyrazol-3-yl)-N^6-(tetrahydro-2H-pyran-4-yl)pyrimidine-4,6-diamine] | –
– | ≤ 1000 | – | – | ≤ 100 | ≤ 100 | ≤ 1000 | Cc1cc(Nc2cc(NC3CCOCC3)nc(-c3cccc(C)c3C)n2)n[nH]1 [Example 180, 2-(2,3-dimethylphenyl)-N^4-(5-methyl-1H-pyrazol-3-yl)-N^6-(tetrahydro-2H-pyran-4-yl)pyrimidine-4,6-diamine] | –
